Reference: patent US7220876B2, “Arylcycloalkyl derivatives having branched side chains, processes for their preparation and their use as pharmaceuticals” (Sanofi-Aventis Deutschland GmbH, priority 2003, dated 2007)

These compounds were tested against T1, human PPARalpha (Homo sapiens, UniProt Q07869) (assay: Cellular PPARalpha assay (stably transfected HEK luciferase reporter cell line)). Details: GR-GAL4-humanPPARalpha-LBD, luciferase readout.
T1 construct: human PPARalpha receptor (amino acids S167-Y468); expressed in transfected cells; host or cells: HEK (human embryo kidney) cells, stably transfected with pcDNA3 carrying the fusion construct
T1 sequence (Q07869 167-468): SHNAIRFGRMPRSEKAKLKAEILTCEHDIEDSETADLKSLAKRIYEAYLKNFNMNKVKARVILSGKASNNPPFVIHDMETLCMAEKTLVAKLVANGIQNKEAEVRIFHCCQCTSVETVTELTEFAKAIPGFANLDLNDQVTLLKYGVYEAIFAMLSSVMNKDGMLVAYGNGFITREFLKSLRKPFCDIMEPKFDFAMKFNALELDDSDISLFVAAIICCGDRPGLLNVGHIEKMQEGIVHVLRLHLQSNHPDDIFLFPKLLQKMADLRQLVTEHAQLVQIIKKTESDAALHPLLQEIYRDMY
Assay type: cell-based
Protocol: The potency of substances which bind to human PPARalpha and activate in an agonistic manner is analyzed using a stably transfected HEK cell line (HEK=human embryo kidney) which is referred to here as PPARalpha reporter cell line. It contains two genetic elements, a luciferase reporter element (pdeltaM-GAL4-Luc-Zeo) and a PPARalpha fusion protein (GR-GAL4-humanPPARalpha-LBD) which mediates expression of the luciferase reporter element depending on a PPARalpha ligand. The stably and constitutively expressed fusion protein GR-GAL4-humanPPARalpha-LBD binds in the cell nucleus of the PPARalpha reporter cell line via the GAL4 protein portion to the GAL4 DNA binding motifs 5′-upstream of the luciferase reporter element which is integrated in the genome of the cell line. There is only little expression of the luciferase reporter gene without addition of a PPARalpha ligand if fatty acid-depleted fetal calf serum (cs-FCS) is used in the assay. PPARalpha ligands bind and activate the PPARalpha fusion protein and thereby bring about expression of the luciferase reporter gene. The luciferase which is formed can be detected by means of chemiluminescence via an appropriate substrate.
The PPARalpha reporter cell line was prepared in 2 stages. Firstly, the luciferase reporter element was constructed and stably transfected into HEK cells. […] The minimal MMTV promoter section contains a CCAAT box and a TATA element in order to enable efficient transcription by RNA polymerase II. […] Then the complete Photinus pyralis gene (Genbank Accession # M15077) was cloned in 3′-downstream of the GAL4-MMTV element. After sequencing, the luceriferase reporter element consisting of five GAL4 binding sites, MMTV promoter and luciferase gene was recloned into a plasmid which confers zeocin resistance in order to obtain the plasmid pdeltaM-GAL4-Luc-Zeo. This vector was transfected into HEK cells in accordance with the statements in Ausubel, F. M. et al. (Current protocols in molecular biology, Vol. 1-3, John Wiley & Sons, Inc., 1995). […] In a second step, the PPARalpha fusion protein (GR-GAL4-humanPPARalpha-LBD) was introduced into the stable cell clone described. […] The cDNA of the ligand-binding domain of the human PPARalpha receptor (amino acids S167-Y468; Genbank Accession # S74349) was cloned in at the 3′-end of this GR-GAL4 construct. The fusion construct prepared in this way (GR-GAL4-humanPPARalpha-LBD) was recloned into the plasmid pcDNA3 (from Invitrogen) in order to enable constitutive expression therein by the cytomegalovirus promoter. This plasmid was linearized with a restriction endonuclease and stably transfected into the previously described cell clone containing the luciferase reporter element. The finished PPARalpha reporter cell line which contains a luciferase reporter element and constitutively expresses the PPARalpha fusion protein (GR-GAL4-human PPARalpha-LBD) was isolated by selection with zeocin (0.5 mg/ml) and G418 (0.5 mg/ml).
The activity of PPARalpha agonists is determined in a 3-day assay which is described below: […]

Compared with CCCCNC(=O)N(CCOC1CCCC(OCc2cccc(C)c2C(=O)O)C1)C(C)CC(C)C (mixture of isomers) [XXII, 2-(cis-3-{2-[3-butyl-1-((1S)/(1R),3-dimethylbutyl)-ureido]ethoxy}cyclohexyloxymethyl)-6-methylbenzoic acid], CCCCCCCN(CCO[C@H]1CCC[C@@H](OCc2cccc(C)c2C(=O)O)C1)C(=O)NCCCC (racemic) [XXXIX, 2-{cis-3-[2-(3-butyl-1-heptylureido)ethoxy]cyclohexyloxy-methyl}-6-methylbenzoic acid] is 19-fold lower in EC50: 3.3 nM for the first, 0.17 nM for the second.

Going from Cc1cccc(CO[C@@H]2CCC[C@H](OCCN(C(=O)Nc3cccc(F)c3)C3CC3)C2)c1C(=O)O (racemic) [XLV, 2-(cis-3-{2-[1-cyclopropyl-3-(3-fluorophenyl)-ureido]ethoxy}cyclohexyloxymethyl)-6-methylbenzoic acid] to Cc1cccc(CO[C@@H]2CCC[C@H](OCCN(C(=O)Nc3cccc(F)c3)C3CCCCC3)C2)c1C(=O)O (racemic) [XVI, 2-(cis-3-{2-[1-cyclohexyl-3-(3-fluorophenyl)-ureido]ethoxy}cyclohexyloxymethyl)-6-methylbenzoic acid], the EC50 falls from 90 nM to 38 nM (2.4-fold).

First: Cc1ccccc1NC(=O)N(CCO[C@H]1CCC[C@@H](OCc2cccc(C)c2C(=O)O)C1)C1CCCCC1 (racemic) [XV, 2-{cis-3-[2-(1-cyclohexyl-3-o-tolylureido)ethoxy]cyclohexyloxymethyl}-6-methylbenzoic acid]
Second: CCCCNC(=O)N(CCO[C@H]1CCC[C@@H](OCc2cccc(C)c2C(=O)O)C1)C1CCCCC1 (racemic) [XVII, 2-{cis-3-[2-(3-butyl-1-cyclohexylureido)ethoxy]cyclohexyloxymethyl}-6-methylbenzoic acid]
The EC50 of the first is 2.7-fold lower: 31 nM for the first, 84 nM for the second.

Compared with Cc1cccc(CO[C@@H]2CCC[C@H](OCCN(CCCc3ccccc3)C(=O)Nc3ccccc3)C2)c1C(=O)O [Example I, 2-{(1R,3S)-3-[2-(1-[3-phenylpropyl]-3-phenylureido)ethoxy]cyclohexyloxymethyl}-6-methylbenzoic acid], Cc1cccc(CO[C@@H]2CCC[C@H](OCCN(CCc3ccc(Cl)cc3)C(=O)Nc3ccccc3)C2)c1C(=O)O [II, 2-{(1R,3S)-3-[2-(1-[2-(4-chlorophenyl)ethyl]-3-phenylureido)ethoxy]cyclohexyloxymethyl}-6-methylbenzoic acid] is 2.6-fold higher in EC50: 1.9 nM for the first, 4.9 nM for the second. The first is the more potent here.

Compared with CCCCCCCN(CCO[C@H]1CCC[C@@H](OCc2cccc(C)c2C(=O)O)C1)C(=O)Nc1ccccc1 [IX, 2-{(1R,3S)-3-[2-(1-heptyl-3-phenylureido)ethoxy]cyclohexyloxymethyl}-6-methylbenzoic acid], CCCCCN(CCO[C@H]1CCC[C@@H](OCc2cccc(C)c2C(=O)O)C1)C(=O)Nc1ccccc1 [VII, 2-{(1 R,3S)-3-[2-(1-pentyl-3-phenylureido)ethoxy]cyclohexyloxymethyl}-6-methylbenzoic acid] is 13-fold higher in EC50: 0.13 nM for the first, 1.7 nM for the second.

Going from Cc1cccc(CO[C@@H]2CCC[C@H](OCCN(CC(C)(C)C)C(=O)Nc3ccccc3)C2)c1C(=O)O [VIII, 2-((1R,3S)-3-{2-[1-(2,2-dimethylpropyl)-3-phenylureido]ethoxy}cyclohexyloxymethyl)-6-methylbenzoic acid] to CCCCNC(=O)N(CCO[C@H]1CCC[C@@H](OCc2cccc(C)c2C(=O)O)C1)Cc1ccc(C)cc1 [XII, 2-((1R,3S)-3-{2-[3-butyl-1-(4-methylbenzyl)ureido]ethoxy}-cyclohexyloxymethyl)-6-methylbenzoic acid], the EC50 falls from 96 nM to 0.07 nM (1400-fold).
